PMC7093416, “Selective USP7 inhibition elicits cancer cell killing through a p53-dependent mechanism” (Scientific Reports, 2020)
Where “and” joins values, the source holds several entries; their conditions need not be identical. Identical values can stand only once.

Tested on: panel of 484 cancer cell lines
Assay: PRISM cancer cell line profiling, 5 days
Type: cell-based
Parameters: Viability: scale not given here; AUC: unit not given beside the values
Experimental: Cancer cell line profiling was performed using the Broad’s PRISM platform. Cell treatment and data analysis were performed as described in Yu et al[42]. Raw Luminex signal was converted to AUC values for each cell line as described. The resulting AUC profile for each compound was modeled against DepMap using the limma package in R[71]. Because hotspot mutation analysis was performed against DepMap, TP53 annotations in Fig. 6c,d are directly from DepMap.

[1] = ISHIKAWAHERAKLIO02ER_ENDOMETRIUM, pert_dose 6.10E-04
[2] = ISTMES1_PLEURA, pert_dose 6.10E-04
[3] = J82_URINARY_TRACT, pert_dose 6.10E-04
[4] = JHOC5_OVARY, pert_dose 6.10E-04
[5] = JHOM1_OVARY, pert_dose 6.10E-04
[6] = JHOS2_OVARY, pert_dose 6.10E-04
[7] = JHUEM2_ENDOMETRIUM, pert_dose 6.10E-04
[8] = JMSU1_URINARY_TRACT, pert_dose 6.10E-04
[9] = K029AX_SKIN, pert_dose 6.10E-04
[10] = KMBC2_URINARY_TRACT, pert_dose 6.10E-04
[11] = KMRC1_KIDNEY, pert_dose 6.10E-04
[12] = KMRC3_KIDNEY, pert_dose 6.10E-04
[13] = KMRC20_KIDNEY, pert_dose 6.10E-04
[14] = KNS42_CENTRAL_NERVOUS_SYSTEM, pert_dose 6.10E-04
[15] = KNS60_CENTRAL_NERVOUS_SYSTEM, pert_dose 6.10E-04
[16] = KNS81_CENTRAL_NERVOUS_SYSTEM, pert_dose 6.10E-04
[17] = KP3_PANCREAS, pert_dose 6.10E-04
[18] = KPL1_BREAST, pert_dose 6.10E-04

COc1ccc(C2=N[C@@H](c3ccc(Cl)cc3)[C@@H](c3ccc(Cl)cc3)N2C(=O)N2CCNC(=O)C2)c(OC(C)C)c1 [Nutlin-3A]
MFI ISHIKAWAHERAKLIO02ER_ENDOMETRIUM [1]: 17513 and 21089 and 23031 and 24710 and 21077 | Viability [1]: 1.048 | AUC (ISTMES1_PLEURA): 0.8886 | MFI ISTMES1_PLEURA [2]: 2566 and 2035 and 2347.5 and 2015 and 3109 | Viability [2]: 1.235 | AUC (ISTMES2_PLEURA): 1.138 | AUC (J82_URINARY_TRACT): 1.1759 | MFI J82_URINARY_TRACT [3]: 7594 and 8347 and 7959 and 7415.5 and 7720 | Viability [3]: 1.013 | AUC (JHH1_LIVER): 0.9453 | MFI JHH1_LIVER (JHH1_LIVER, pert_dose 6.10E-04): 11573 and 10266 and 10186 and 11807 and 10726 | Viability (JHH1_LIVER, pert_dose 6.10E-04): 1.394 | AUC (JHH4_LIVER): 1.013 | MFI JHH4_LIVER (JHH4_LIVER, pert_dose 6.10E-04): 1508 and 1417.5 and 1162 and 1639 and 865 | Viability (JHH4_LIVER, pert_dose 6.10E-04): 1.304 | AUC (JHH5_LIVER): 1.1112 | MFI JHH5_LIVER (JHH5_LIVER, pert_dose 6.10E-04): 3002.5 and 2853 and 3080 and 1890 and 2323 | Viability (JHH5_LIVER, pert_dose 6.10E-04): 1.08 | AUC (JHH6_LIVER): 1.195 | AUC (JHH7_LIVER): 1.097 | MFI JHH7_LIVER (JHH7_LIVER, pert_dose 6.10E-04): 18251 and 14971.5 and 12968 and 19915 and 22149.5 | Viability (JHH7_LIVER, pert_dose 6.10E-04): 1.3367 | AUC (JHOC5_OVARY): 0.8963 | MFI JHOC5_OVARY [4]: 1729 and 2155 and 2543 and 1875 and 1529 | Viability [4]: 1.248 | AUC (JHOM1_OVARY): 1.061 | MFI JHOM1_OVARY [5]: 10909 and 10588 and 11258 and 11487.5 and 8758 | Viability [5]: 1.182 | AUC (JHOS2_OVARY): 1.199 | MFI JHOS2_OVARY [6]: 8954 and 9206 and 9624 and 7221 and 11208 | Viability [6]: 1.028 | AUC (JHUEM2_ENDOMETRIUM): 0.8108 | MFI JHUEM2_ENDOMETRIUM [7]: 2855 and 2201 and 2113.5 and 2693 and 2731 | Viability [7]: 1.224 | AUC (JIMT1_BREAST): 1.15 | MFI JIMT1_BREAST (JIMT1_BREAST, pert_dose 6.10E-04): 10595.5 and 12336 and 13040 and 10400 and 10776.5 | AUC (JMSU1_URINARY_TRACT): 1.157 | MFI JMSU1_URINARY_TRACT [8]: 4527 and 4135 and 3123.5 and 5456 and 3525 | Viability [8]: 1.215 | AUC (K029AX_SKIN): 1.078 | MFI K029AX_SKIN [9]: 12564 and 8034.5 and 10939 and 12309 and 13968 | Viability [9]: 1.186 | AUC (KALS1_CENTRAL_NERVOUS_SYSTEM): 1.089 | AUC (KELLY_AUTONOMIC_GANGLIA): 1.128 | Viability (KELLY_AUTONOMIC_GANGLIA, pert_dose 6.10E-04): 1.339 | AUC (KMBC2_URINARY_TRACT): 0.9038 | MFI KMBC2_URINARY_TRACT [10]: 31608 and 32944 and 28231 and 28847.5 and 34382 | Viability [10]: 1.231 | AUC (KMRC1_KIDNEY): 0.8619 | MFI KMRC1_KIDNEY [11]: 5006 and 3553 and 4568 and 4375 and 4801 | Viability [11]: 1.324 | AUC (KMRC3_KIDNEY): 1.059 | MFI KMRC3_KIDNEY [12]: 29567 and 34290 and 33080.5 and 28662.5 and 32330 | Viability [12]: 1.163 | AUC (KMRC20_KIDNEY): 1.075 | MFI KMRC20_KIDNEY [13]: 6115 and 7240 and 5574 and 9127.5 and 7315 | Viability [13]: 0.8672 | AUC (KNS42_CENTRAL_NERVOUS_SYSTEM): 1.094 | MFI KNS42_CENTRAL_NERVOUS_SYSTEM [14]: 8504.5 and 8227 and 7874 and 8635.5 and 8359 | Viability [14]: 1.265 | AUC (KNS60_CENTRAL_NERVOUS_SYSTEM): 1.169 | MFI KNS60_CENTRAL_NERVOUS_SYSTEM [15]: 11444.5 and 12827 and 11109 and 11402 and 11624 | Viability [15]: 1.1124 | AUC (KNS62_LUNG): 1.292 | MFI KNS62_LUNG (KNS62_LUNG, pert_dose 6.10E-04): 2968.5 and 3165 and 4343 and 4527 and 3128 | Viability (KNS62_LUNG, pert_dose 6.10E-04): 1.098 | AUC (KNS81_CENTRAL_NERVOUS_SYSTEM): 0.9079 | MFI KNS81_CENTRAL_NERVOUS_SYSTEM [16]: 11445 and 13291.5 and 12010.5 and 13242.5 and 18307.5 | Viability [16]: 0.9016 | AUC (KP2_PANCREAS): 1.091 | AUC (KP3_PANCREAS): 1.107 | MFI KP3_PANCREAS [17]: 17810 and 19047 and 22202 and 17616 and 20627.5 | Viability [17]: 1.1325 | AUC (KP4_PANCREAS): 1.1795 | MFI KP4_PANCREAS (KP4_PANCREAS, pert_dose 6.10E-04): 27317.5 and 27770 and 29960.5 and 31578.5 and 28421.5 | AUC (KPL1_BREAST): 0.8742 | MFI KPL1_BREAST [18]: 9781 and 14848 and 14727 and 9958 and 12061.5 | Viability [18]: 0.9855 | AUC (KU1919_URINARY_TRACT): 0.8508 | AUC (KURAMOCHI_OVARY): 1.126 | AUC (KYSE30_OESOPHAGUS): 0.985 | AUC (KYSE70_OESOPHAGUS): 1.1193 | AUC (KYSE140_OESOPHAGUS): 1.1498 | AUC (KYSE150_OESOPHAGUS): 1.138 | AUC (KYSE180_OESOPHAGUS): 1.143 | AUC (KYSE270_OESOPHAGUS): 0.9726 | AUC (KYSE410_OESOPHAGUS): 1.088 | AUC (KYSE510_OESOPHAGUS): 0.9924 | AUC (KYSE520_OESOPHAGUS): 1.08 | AUC (L33_PANCREAS): 1.295 | AUC (LC1SQSF_LUNG): 1.142
